Experimental data: ChEMBL document CHEMBL1127710 (Bioorg Med Chem Lett, 1994)

Legend:
Phosphodiesterase 4 [1] = molecular target: T1, Phosphodiesterase 4 (Homo sapiens, UniProt P27815+Q08499+Q07343+Q08493); experiment: Inhibition of cAMP-specific Phosphodiesterase 4 (PDE IV); format: protein assay
Phosphodiesterase 4 [2] = molecular target: T1, Phosphodiesterase 4; experiment: Inhibition of rolipram binding to Phosphodiesterase 4; format: protein assay

Ki (Phosphodiesterase 4 [1]) [µM] | Kd (Phosphodiesterase 4 [2]) [µM] | SMILES
63.9 | 16.5 | O=C1CC(c2ccc3c(c2)OC2(CCCCC2)O3)CN1 (configuration not stated)
> 100 | > 100 | O=C1CC(c2ccc3c(c2)OCO3)CN1 (configuration not stated)
3.69 | 4 | O=C1CC(c2cc3c(c(OC4CCCC4)c2)OCC3)CN1 (configuration not stated)
> 100 | > 100 | O=C1CC(c2ccc3c(c2)OCCO3)CN1 (configuration not stated)
0.26 | 0.03 | O=C1CC(c2cc(OC3CCCC3)c3occc3c2)CN1 (configuration not stated)
1.17 | 0.21 | O=C1CC(c2cc3c(c(OC4CCCC4)c2)OCCC3)CN1 (configuration not stated)
